We go through seven compounds from paper PMC6344527, “Toxicity and possible mechanisms of action of honokiol from Magnolia denudata seeds against four mosquito species” (Scientific Reports, 2019).

The subject of data set [1] is third-instar larvae of insecticide-susceptible Aedes aegypti. Kind of data set: contact mortality bioassay, 24 h exposure. It is filed as in vivo. To be noted: 24 h exposure; for LC50: Aedes aegypti, 24 h. As for the experimental part:
(§1) A contact mortality bioassay[25] was used to evaluate the toxicity of all compounds against third-instar larvae of the four mosquito species. Each test compound in methanol was suspended in DW with Triton X-100 (20 µL/L). Groups of 20 mosquito larvae were separately placed into paper cups (270 mL) containing each compound solution (250 mL). […] Negative controls consisted of a methanol–Triton X-100 solution in DW.
(§2) Treated and control (methanol–Triton X-100 solution only) larvae were maintained under the same conditions as those used for colony maintenance without providing food. Larval mortalities were determined 24 h post-treatment. […] All treatments were performed three times using 20 larvae per replicate.
(§3) The concentration of the test compounds required to produce 50% AChE inhibitory activity (IC50) was determined using the SAS 9.13 program (Cary: SAS Institute; 2014). Concentration-mortality data were subjected to probit analysis using the SAS 9.13 program. […] Statistical analyses were performed using the SAS 9.13 program. Multiple linear regression and correlation analysis were performed using the SPSS 24 program (Armonk: IBM Corp.; 2016).

Data set [2] relates to third-instar larvae of insecticide-susceptible Culex pipiens pallens. Kind of data set: contact mortality bioassay, 24 h exposure. The format is in vivo. To be noted: 24 h exposure; for LC50: Culex pipiens, 24 h. As for the experimental part:
as §1, §2, §3

Data set [3] has as its target acetylcholinesterase (AChE) from third-instar Ae. aegypti larvae (Aedes aegypti, UniProt A4GND7). Put plainly: acetylcholinesterase inhibition assay. It is filed as biochemical. The note with it: based on IC50 values. As for the experimental part: The in vitro AChE inhibitory activity of the test compounds was assessed according to the method of Perumalsamy et al.[42]. Third-instar Ae. aegypti larvae were used in all experiments. Whole bodies of 50 larvae were homogenized in 1 mL of ice-cold 0.1 M phosphate buffer (pH 8.0) using a glass tissue homogenizer. After filtering through cheesecloth, the homogenate was centrifuged at 1,000 × g at 4 °C for 5 min. The supernatant was used directly as the enzyme source for AChE. The protein levels were determined using the Bradford Protein Assay Kit (Bio-Rad Laboratories, Hercules, CA, USA) using BSA as the standard. The reaction mixture consisted of 50 µL of the crude enzyme preparation (4.3–4.8 µg protein equivalents), 150 µL of 0.1 M phosphate buffer, 20 µL of 3 mM DTNB in phosphate buffer (pH 7.0), and 1 µL of various concentrations of each test compound in ethanol. The reaction mixture was incubated at 30 °C for 5 min, and 20 µL of 32 mM ATChI was then added to the mixture. After incubation for 30 min, the reaction was terminated by adding 20 µL of 5 mM eserine salicylate. Absorbance was recorded at 412 nm using a VersaMax microplate reader (Molecular Devices, Sunnyvale, CA, USA). […] The results are expressed as the means ± standard errors (SEs) of triplicate samples from three independent experiments.
as §3

In data set [4] the test system is larval Ae. aegypti. The arrangement: method as in PMID 23676010. The note with it: cited from earlier work.
Data set [5] deals with third-instar larvae of insecticide-resistant Anopheles sinensis. Kind of data set: contact mortality bioassay, 24 h exposure. It is filed as in vivo. As for the experimental part:
as §1, §2, §3

For data set [6], the system named is third-instar larvae of insecticide-susceptible Aedes albopictus. Kind of data set: contact mortality bioassay, 24 h exposure. The format is in vivo. Here is the method:
as §1, §2, §3

Data set [7] deals with Larvae of An. sinensis. The arrangement: method as in PMID 26085316. To be noted: An. sinensis larvae compared with Ae. aegypti larvae; cited from earlier work.
Data set [8] deals with whole-body homogenate from third-instar Aedes aegypti larvae (adenylate cyclase activity). Put plainly: determination of cyclic AMP levels (octopamine-sensitive adenylate cyclase activity). The note with it: 100 μM; compared with control group / octopamine. The format is biochemical. Here is the method: The method of Perumalsamy et al.[42] was used to assess the in vitro octopamine-sensitive adenylate cyclase activity of the test compounds. In brief, whole bodies of 75 Ae. aegypti larvae (106.2 mg) were homogenized in 500 µL of 2 mM Tris-maleate buffer (pH 7.4) containing 0.8 mM ethylene glycol tetraacetic acid (EGTA). The adenylate cyclase activity was determined using the cAMP Biotrak Enzymeimmunoassay system according to the manufacturer’s protocol. The assay was conducted in a total volume of 100 µL containing 80 mM Tris-maleate buffer, 5 mM theophylline, 2 mM MgSO4, 0.5 mM adenosine triphosphate (ATP), 0.2 mM EGTA, 50 µL of whole-body homogenate (equivalent to 4.12 µg protein), and 1 µL of the test compounds in Tris-maleate buffer containing 0.2% ethanol. After incubation at 20 °C for 5 min, the reaction was initiated by addition of ATP. Incubation was performed at 30 °C for 3 min in a shaking water bath. The reaction was stopped by boiling for 2 min, and then, the assay tube was cooled and centrifuged at 8,000 × g for 10 min. Fifty microliters of the supernatant were assayed for cAMP levels.
Polystyrene microplates (1 strip of 8 wells) coated with a goat anti-mouse polyclonal antibody were used. Fifty microliters of a mouse monoclonal antibody solution were added to each well except for the blank wells (or the nonspecific binding wells). The wells covered with the adhesive strip were incubated at 25 °C for 1 h in a shaking incubator (480 rpm). After washing with 400 µL of wash buffer four times, 50 μL of the two neolignan samples for cAMP determination and cAMP standard were added to wells. Control, blank (nonspecific binding), and zero standard wells were supplemented with 50 μL of a diluent RD5-55 buffer. […] The optical densities at 450 and 540 nm were determined using the microplate reader described above. The readings at 540 nm were subtracted from the readings at 450 nm. The cAMP concentrations are expressed as nmol/µg protein. The results are expressed as the means ± SEs of triplicate samples from three independent experiments.

The test system of data set [9] is AaAQP4. The arrangement: method as in PMID 24260359. To be noted: larval Ae. aegypti anal gills; cited from earlier work.
For data set [10], the system named is AaV-type H^+-ATPase. Set-up: method as in PMID 24260359. The note with it: larval Ae. aegypti; cited from earlier work.

In brackets after ≈: the same amount, converted by molar mass. Where two headings read alike, the source gives them in different places.

acetylcholinesterase (AChE) from third-instar Ae. aegypti larvae, sequence (A4GND7 37-679): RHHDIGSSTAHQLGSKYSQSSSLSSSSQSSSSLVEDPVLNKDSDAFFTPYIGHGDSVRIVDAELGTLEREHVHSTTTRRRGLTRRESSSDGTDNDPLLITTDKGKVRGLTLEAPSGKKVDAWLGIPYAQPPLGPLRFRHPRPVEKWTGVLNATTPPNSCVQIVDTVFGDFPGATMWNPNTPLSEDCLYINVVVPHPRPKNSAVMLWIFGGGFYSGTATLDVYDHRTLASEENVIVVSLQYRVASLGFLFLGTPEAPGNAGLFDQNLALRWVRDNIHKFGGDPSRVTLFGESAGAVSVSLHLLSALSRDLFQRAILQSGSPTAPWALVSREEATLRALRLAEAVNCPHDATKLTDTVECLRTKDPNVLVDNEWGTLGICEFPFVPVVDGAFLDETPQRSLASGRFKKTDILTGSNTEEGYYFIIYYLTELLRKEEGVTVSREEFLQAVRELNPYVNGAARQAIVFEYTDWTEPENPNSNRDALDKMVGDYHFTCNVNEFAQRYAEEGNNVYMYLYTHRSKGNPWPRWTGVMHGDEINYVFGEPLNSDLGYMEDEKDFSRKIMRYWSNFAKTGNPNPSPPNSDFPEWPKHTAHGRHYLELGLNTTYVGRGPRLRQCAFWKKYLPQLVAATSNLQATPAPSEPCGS

For `Oc1ccccc1` [Phenol], the LC50 in [1] (Table 7, structure-activity series, read-out: LC50 (mg/L) (95% CI)) was 43.2 mg/L (≈ 459 µM); in data set [2] (Table 6, structure-activity series, read-out: LC50 (mg/L) (95% CI)) it was 41.7 mg/L (≈ 443 µM); in data set [4], 194 mg/L (≈ 2060 µM). Further, the “LC90 (mg/L) (95% CI)” value in data set [1] (Table 7, structure-activity series) is 207.1 (145.1–363.6) mg/L; in data set [2] (Table 6, structure-activity series) it was 185.1 (133.5–306.6) mg/L. Also, the “AChE inhibitory activity (in words)” value in data set [3] is recorded as “lowest of all of the compounds that were examined”.

Consider `COP(=S)(OC)Oc1ccc(Sc2ccc(OP(=S)(OC)OC)cc2)cc1` [Temephos, temephos, reference compound], for which the LC50 came to 0.4 mg/L (≈ 0.857 µM) in data set [5] (Anopheles sinensis, 24 h, read-out: LC50 (mg/L) (95% CI)); 0.0125 mg/L (≈ 0.0268 µM) in data set [1] (read-out: LC50 (mg/L) (95% CI), Table 3); 0.0132 mg/L (≈ 0.0283 µM) in data set [6] (Aedes albopictus, 24 h, read-out: LC50 (mg/L) (95% CI)); 0.0162 mg/L (≈ 0.0347 µM) in data set [2] (read-out: LC50 (mg/L) (95% CI), Table 2, KS-CP strain). The “LC90 (mg/L) (95% CI)” value in data set [5] (Table 5, larvae resistant to deltamethrin and temephos, 24 h exposure) is 1.39 (1.05–2.13) mg/L; in [1] (Table 3) it was 0.0658 (0.0479–0.1059) mg/L; in [6] (Table 4, 24 h exposure), 0.0778 (0.0547–0.1343) mg/L; in [2] (Table 2, KS-CP strain) it was 0.0749 (0.0551–0.1177) mg/L. The “Slope ± SE” value is recorded as 2.2 ± 0.15 in [5] (probit slope, Table 5, larvae resistant to deltamethrin and temephos, 24 h exposure); 1.6 ± 0.21 in data set [6] (probit slope, Table 4, 24 h exposure). Also, the “relative susceptibility ratio (RSR)” value in data set [7] is 29.

Take `Cc1ccc(C(C)C)cc1O` [carvacrol]: the LC50 in data set [4] was 69 mg/L (≈ 459 µM).

On to `CC1(C)[C@H](C(=O)O[C@H](C#N)c2cccc(Oc3ccccc3)c2)[C@@H]1C=C(Br)Br` [deltamethrin], for which the “relative susceptibility ratio (RSR)” value in data set [7] was 611.

On to `COP(=S)(OC)Oc1ccc(SC)c(C)c1` [fenthion], for which the “relative susceptibility ratio (RSR)” value in data set [7] is recorded as 11.

For the compound `NCC(O)c1ccc(O)cc1` (centres unmarked) [octopamine, reference compound], in [8], the cAMP levels entry is on record as “did not differ significantly”.

`CCCCC/C=C/C=C/C(=O)NCC(C)C` [pellitorine]: in [9], the AaAQP4 expression levels result is “inhibited the AaAQP4 expression levels”. In addition, the “expression levels of the gene encoding AaV-type H^+-ATPase” value in data set [10] is “slight decreases”.
